{"source": "patent US12138369B2", "about": "“Magnetically-activated coating for treating biofilms, and associated systems and methods” (priority 2016, dated 2024)", "key": {"[1]": {"tested_on": "Pseudomonas aeruginosa PAO1 biofilms", "test": "MBEC assay: antibiotic exposure with or without thermal shock, biofilm enumeration", "assay_type": "cell-based", "conditions": "for viable biofilm bacteria after combined treatment: 1 min thermal shock; for effect on biofilm populations: higher concentrations, antibiotic on its own, cannot reliably eliminate", "description": "Biofilm Growth: Cryogenically preserved Pseudomonas aerugiona PAO1 (15692, American Type Culture Collection, Manassas, Va.) was thawed and streaked on an agar plate (Difco Nutrient Agar, Sparks, Md., USA). The agar plates were inverted and incubated at 37° C. for 24 hours. An inoculum was made by suspending two colony forming units (CFUs) from the agar plate in five milliliters of sterile tryptic soy broth (TSB, BD Bacto, Sparks, Md., USA) made as directed and incubated at 37° C. for 24 hours, achieving an average concentration of 2.12×109±0.07×10^9 CFU/mL. One milliliter of inoculum was then diluted into 15 mL TSB and mixed gently. One hundred fifty microliters of the diluted mixture was then placed into each well of the 96-well plate, except for the negative control wells which received 150 μL of TSB. The plate was part of an MBEC™ assay (Innovotech, Edmonton, AB, Canada) in which a corresponding array of 96 pegs protrudes from the plate lid into the wells, providing a convenient array of substrates for biofilm growth which are then readily transferred to new wells (Harrison et al. 2010). The peg lid was placed onto the 96-well plate then sealed using Parafilm and placed on an orbital shaker table (VWR 1000, 15 mm orbit, Thorofare, N.J., USA) at 160 rpm and incubated at 37° C. for 24 hours.\nAntibiotic Preparation: A stock of 5 mg/mL ciprofloxacin in sterile, de-ionized water was prepared with ciprofloxacin hydrochloride (MP Biomedicals, Santa Ana, Calif., USA) and mixed thoroughly. Tobramycin stock was made in a similar fashion by mixing 5 mg/mL tobramycin sulfate salt (Sigma-Aldrich, St. Louis, Mo., USA) in sterile, de-ionized water. Erythromycin was obtained from MP Biomedicals and the stock was prepared by mixing 5 mg/mL erythromycin into ethanol. Each antibiotic mixture was then filter sterilized through a […] PES membrane sterile filter (Millex®GP filter unit) and stored at 2° C. Each antibiotic was then diluted from the stock solution into sterile TSB at an array of concentrations in a 96-well challenge plate used that day.\nAntibiotic Exposure: After 24 hr of growth, the array of biofilm-covered pegs was transferred into a 96-well rinse plate (Costar® 96 well flat bottom cell culture, Corning Incorporated, NY, USA) containing 200 μL/well de-ionized, sterile water at ambient temperature for 2 min to remove bacteria not incorporated in the biofilm. The peg lid was then transferred to a 96-well challenge plate of wells containing 200 μL of various concentrations of ciprofloxacin, tobramycin, or erythromycin diluted in TSB. For the antibiotic experiments without thermal shock the peg lid was exposed to a single challenge plate for 24 hours in an incubator at 37° C. before rinsing again for 2 min in a new rinse plate. The peg lid was then transferred to a recovery plate containing 200 μL/well fresh, sterile TSB for resuspension and enumeration.\nAntibiotic and Thermal Exposure: To investigate the combined effect of antibiotics and thermal shock, biofilms cultured and exposed to antibiotics as discussed above were removed from their antibiotic challenge plate after only four hours. They were quickly transferred to a challenge plate with the same array of antibiotic concentrations, preheated to the target temperature by a thermostatted water bath. Temperatures of 37° C., 50° C., 60° C., 70° C., and 80° C. were studied at exposure times of 1, 5, and 30 min. The pegs were left in the heated challenge plate for the desired exposure time, then transferred to a new challenge plate with the same antibiotic concentrations at 37° C. and incubated for the remainder of the total 24 hour antibiotic exposure time. Following 24 total hours of antibiotic exposure time the peg lid was rinsed once again for two minutes in a new rinse plate and placed into a recovery plate for resuspension and enumeration. […]"}, "[2]": {"tested_on": "dispersed planktonic bacteria (Pseudomonas aeruginosa PAO1)", "test": "Optical density measurements of planktonic bacteria dispersed from biofilm", "assay_type": "cell-based", "description": "Optical Density Measurements of Planktonic Bacteria: The planktonic bacteria that had escaped the biofilm via dispersion after the thermal treatment were optically observed to better understand the biofilm's dispersion post-thermal treatment while antibiotics were still present. To estimate the free-swimming bacteria following the antibiotic treatment, the optical density (BioTek Gen5 Microplate Reader, Winooski, Vt., USA) at 600 nm was measured for each well in the second challenge plate. The negative controls in the challenge plate contained only TSB and were used to calculate an average background.\nStatistical Analysis: The statistical analysis of both the planktonic optical density reads and the logarithmic CFU counts were reported via their arithmetic mean and standard deviation. […] Statistical analysis was performed in GraphPad Prism 7 using the two-way ANOVA with a confidence interval of 95%."}}, "note": "Where a name gives a salt, the structure may show the parent alone.", "data": [{"compound": "O=C(O)c1cn(C2CC2)c2cc(N3CCNCC3)c(F)cc2c1=O", "note": "[Ciprofloxacin, ciprofloxacin hydrochloride]", "values": [{"measurement": "effect on biofilms", "setting": "[1]; 0.125 μg/mL by itself", "result": "little effect"}, {"measurement": "reduction of biofilm populations", "setting": "[1]; 0.125 μg/mL combined with thermal shock at 60° C. for 5 min", "result": "five orders of magnitude"}, {"measurement": "reduction of biofilm populations", "setting": "[1]; 0.125 μg/mL combined with thermal shock at 70° C. for 1 min", "result": "five orders of magnitude"}, {"measurement": "viable biofilm bacteria after combined treatment", "setting": "[1]; 1 μg/mL combined with 70° C.", "result": "no viable bacteria"}, {"measurement": "decrease in viable bacteria of biofilms", "setting": "[1]; 1 μg/mL, regardless of the heating", "result": "at least a five-order magnitude decrease"}, {"measurement": "decrease in viable bacteria of biofilms", "setting": "[1]; 4 μg/mL (bloodstream concentration), regardless of the heating", "result": "at least a five-order magnitude decrease"}, {"measurement": "viable biofilm bacteria after combined treatment", "setting": "[1]; 4 μg/mL combined with 70° C.", "result": "no viable bacteria"}, {"measurement": "effect on biofilm populations", "setting": "[1]", "result": "significantly reduce biofilm populations"}, {"measurement": "effect on dispersed planktonic bacteria", "setting": "[2]; 0.125, 1.0, and 4.0 μg/mL, OD 600 nm", "result": "effective against the planktonic bacteria"}, {"measurement": "effect on dispersed planktonic bacteria", "setting": "[2]; higher two concentrations (1.0, 4.0 μg/mL), regardless of thermal shock", "result": "killing off almost all the free-swimming bacteria"}]}, {"compound": "CC[C@H]1OC(=O)[C@H](C)[C@@H](O[C@H]2C[C@@](C)(OC)[C@@H](O)[C@H](C)O2)[C@H](C)[C@@H](O[C@@H]2O[C@H](C)C[C@H](N(C)C)[C@H]2O)[C@](C)(O)C[C@@H](C)C(=O)[C@H](C)[C@@H](O)[C@]1(C)O", "note": "[Erythromycin, erythromycin]", "values": [{"measurement": "decrease in viable bacteria of biofilms", "setting": "[1]; 60° C. for 5 min, 64 μg/mL", "result": "1.5 log(CFU/peg)"}, {"measurement": "decrease in viable bacteria of biofilms", "setting": "[1]; 60° C. for 5 min, 128 μg/mL", "result": "2.7 log(CFU/peg)"}, {"measurement": "decrease in viable bacteria of biofilms", "setting": "[1]; 70° C. for 1 min, 64 μg/mL", "result": "2.3 log(CFU/peg)"}, {"measurement": "decrease in viable bacteria of biofilms", "setting": "[1]; 70° C. for 1 min, 128 μg/mL", "result": "6.0 log(CFU/peg)"}, {"measurement": "effect on biofilms", "setting": "[1]; any concentration, control temperature 37° C.", "result": "no effect"}, {"measurement": "effect on biofilms", "setting": "[1]; any concentration, in combination with 50° C. thermal treatments", "result": "no effect"}, {"measurement": "effect on dispersed planktonic bacteria", "setting": "[2]; 2 μg/mL", "result": "no discernible effect"}, {"measurement": "effect on dispersed planktonic bacteria", "setting": "[2]; 64 μg/mL, even without thermal shock", "result": "significant reduction in population"}, {"measurement": "effect on dispersed planktonic bacteria", "setting": "[2]; 128 μg/mL", "result": "further decrease in viable planktonic bacterial cells"}, {"measurement": "effect on dispersed planktonic bacteria, combined treatment", "setting": "[2]; with 60° C. thermal shock for 5 min", "result": "significantly reduced from the non-thermal-shocked values"}]}, {"compound": "tobramycin sulfate salt", "values": [{"measurement": "effect of combined thermal shock and antibiotic on biofilm", "setting": "[1]; 50° C. for 30 min, 60° C. for 5 min, and 70° C. for 1 min", "result": "larger than either treatment by itself"}, {"measurement": "trend of biofilm mitigation with thermal exposure time", "setting": "[1]; all non-zero concentrations, regardless of temperature (not at 37° C. control)", "result": "prolonged thermal exposure time increasing the overall efficacy of biofilm mitigation"}, {"measurement": "effect on biofilm populations", "setting": "[1]", "result": "significantly reduce biofilm populations"}, {"measurement": "effect on dispersed planktonic bacteria", "setting": "[2]; 1.0, 2.0, and 4.0 μg/mL, OD 600 nm", "result": "effective against the planktonic bacteria"}, {"measurement": "effect on dispersed planktonic bacteria", "setting": "[2]; higher two concentrations (2.0, 4.0 μg/mL), regardless of thermal shock", "result": "killing off almost all the free-swimming bacteria"}]}]}
